According to patent US6730665B1, “Treatment of bone cancer” (Mayo Foundation for Medical Education and Research, priority 1999, dated 2004):

Legend:
[1] = test system: hFOB cells overexpressing estrogen receptor-alpha (hFOB-ERα); experiment: Cell survival, viable cell count with trypan blue; format: cell-based, human; details: 2 μM, 72 h
Description: (§1) MG63 and TE85 human osteosarcoma cells, and ROS 17/2.8 rat osteosarcoma cells were grown in DMEM/F12 phenol-red free medium containing 10% charcoal-stripped fetal bovine serum (FBS) and supplemented with 100 units/ml penicillin, 100 μg/ml streptomycin. Cell were incubated at 37° C. under 5% CO2 in air. Cells were plated at 5×10^4 cells per well into 24 well plates containing 1 ml of medium per well. After allowing the cells to attach overnight, media in the wells were replaced with fresh 1 ml medium. Human fetal osteoblasts (hFOB) cells and hFOB cells overexpressing estrogen receptor-alpha (hFOB-ERα) and estrogen receptor-beta (hFOB-ERβ) were grown in DMEM/F12 medium containing FBS, penicillin, streptomycin and Geneticin (300 μg/mL). The laboratory of Dr. B. L. Riggs at Mayo Clinic provided primary human osteoblast (HOB) cells. HOB cells were basically established from cancellous bone obtained as waste from orthopedic procedures and cultured as explants to generate the osteoblast-like monolayers as described by Borke et al., J. Clin. Endocrinol. Metab., 1988, 67:1299-1304. […]
(§2) Estrogen metabolites were diluted 1000 fold to give the final required concentrations in each well, and maintained for 72 hrs. […] Cell growth was measured by taking the viable cell count. At the end of metabolite treatment, cells were harvested, stained with trypan blue, and counted under a light microscope.

[2] = test system: hFOB cells overexpressing estrogen receptor-beta (hFOB-ERβ); experiment: Cell survival, viable cell count with trypan blue; format: cell-based, human; details: 2 μM, 72 h
Description: as §1, §2

[3] = test system: osteosarcoma cells and immortalized cell lines; experiment: Cell survival, summary statement; format: cell-based
Description: MG63 and TE85 human osteosarcoma cells, and ROS 17/2.8 rat osteosarcoma cells were grown in DMEM/F12 phenol-red free medium containing 10% charcoal-stripped fetal bovine serum (FBS) and supplemented with 100 units/ml penicillin, 100 μg/ml streptomycin. Cell were incubated at 37° C. under 5% CO2 in air. Cells were plated at 5×10^4 cells per well into 24 well plates containing 1 ml of medium per well. After allowing the cells to attach overnight, media in the wells were replaced with fresh 1 ml medium. Human fetal osteoblasts (hFOB) cells and hFOB cells overexpressing estrogen receptor-alpha (hFOB-ERα) and estrogen receptor-beta (hFOB-ERβ) were grown in DMEM/F12 medium containing FBS, penicillin, streptomycin and Geneticin (300 μg/mL). The laboratory of Dr. B. L. Riggs at Mayo Clinic provided primary human osteoblast (HOB) cells. HOB cells were basically established from cancellous bone obtained as waste from orthopedic procedures and cultured as explants to generate the osteoblast-like monolayers as described by Borke et al., J. Clin. Endocrinol. Metab., 1988, 67:1299-1304. Human FOB cells and hFOB cells stably transfected with estrogen receptors (ERs) were maintained at 34° C., while all other cells were incubated at 37° C. under 5% CO2 in air.
Estrogen metabolites were diluted 1000 fold to give the final required concentrations in each well, and maintained for 72 hrs. The metabolites 2ME, 2OHE, and E2 were purchased from Sigma Chemical Company (St. Louis, Mo.). Stock solutions for each metabolite were made in 95% ethanol. Cell growth was measured by taking the viable cell count. At the end of metabolite treatment, cells were harvested, stained with trypan blue, and counted under a light microscope.

[4] = test system: MG63 cells; experiment: Bone matrix protein mRNA levels by northern blot; format: cell-based, human; details: 10 μM
Description: Time course effects of 2ME on steady-state mRNA levels for bone matrix proteins were determined. MG63 cells in triplicate cultures were treated with 10 μM 2ME. Cells were harvested at the end of 0, 12, 24 and 72 h of treatment and used for RNA isolation. Total RNA isolated from cells was analyzed by northern blot hybridization. Ten μg of RNA sample were denatured by incubation at 52° C. in a solution of 1M glyoxal, 50% dimethyl sulfoxide, and 0.01 M NaH2PO4, and then separated in a 1% agarose gel. RNA separated in agarose gels was transferred to an Amersham Hybond nylon membrane overnight via capillary action in 20× standard saline citrate (SSC) (1×SSC=0.15 M NaCl and 0.015 M sodium citrate, pH 7.0), sodium citrate buffer. The amounts of RNA loaded and transferred were assessed by methylene blue staining of the membranes and hybridization with a [^32P]-labeled cDNA for 18S ribosomal RNA. Membranes were prehybridized for 2 h at 65° C. in buffer containing 50% deionized formamide, 10% dextran sulfate, 5×SSC, 100 μg/ml of heat-denatured single-strand salmon sperm DNA, and 2× Denhardts solution. Hybridization was conducted for 80 min in a buffer containing the above ingredients in addition to a minimum of 10^6 cpm per mL [^32P]-labeled cDNA probe. Labeled type I collagen and osteonectin cDNA were used for probing the blots. The cDNA probes were labeled by random sequence hexanucleotide primer extension using the Megaprime DNA labeling kit from Amersham (Arlington Heights, Ill.). The membranes were washed for 30 min at 45° C. in 2×SSC and for 15 to 60 min in 0.1×SSC at 45° C. The resulting radioactive mRNA bands on the blots were quantitated by Phosphorimager (Molecular Dynamics, Sunnyvale, Calif.).

[5] = test system: MG63 cells; experiment: Cytokine and growth factor mRNA levels by RNase protection assay; format: cell-based, human; details: 10 μM
Description: Changes in steady state mRNA levels for cytokines implicated in the regulation of bone formation and resorption were measured using RNase Protection assays. For RNA isolation and RNase protection assays, MG63 cells were plated at 10^6 cells per T75 culture flask a day prior to metabolite treatment. The next day, the medium was removed and replaced with fresh medium containing 10 μM concentrations of 2ME and incubated for 12, 24, 48, and 72 hours. Cells were harvested and cell pellets were used for RNA isolation. Total cellular RNA was extracted and isolated using a modified organic solvent method and the RNA yields were determined spectrohotometrically at 260 nm. Total cellular RNA was analyzed by RNase protection assays using antisense RNA probes for transforming growth factor-beta (TGF-β), tumor necrosis factor (TNF) α and β, interleukin (IL) 1α, 1β, 1Ra, 6, 10, 12 (p35 and p40), interferon (IFN) β and γ, and lymphotoxin (LT) β. Quantitation of protected RNA fragments was performed by PhosphorImager analyses and normalized to ribosomal structural protein L32 or glyceraldehyde 3-phosphate dehydrogenase levels. Results are presented in FIG. 8 and Table 4, and are representative of 3 independent treatments.

Q: `COc1cc2c(cc1O)CC[C@@H]1[C@@H]2CC[C@]2(C)[C@@H](O)CC[C@@H]12` [2ME, 2-methoxyestradiol] was tested. Which “cell numbers reduced to” value [1] did it give?
A: 24%

Q: And the “cell numbers reduced to” value [2]?
A: 24%

Q: What about the “reduction of cell survival” value ([3]; 2 μM, continuous treatment, 72 hours) of the same molecule?
A: 85%

Q: And the “reduction of cell survival” value ([3]; 20 μM)?
A: 95%

Q: And the “decrease in osteonectin mRNA level” value ([4]; 12 h)?
A: 50%

Q: And the “decrease in type 1 collagen mRNA level” value ([4]; 12 h)?
A: 26%

Q: And the “decrease in osteonectin mRNA level” value ([4]; 24 h)?
A: 38%

Q: And the “decrease in type 1 collagen mRNA level” value ([4]; 24 h)?
A: 37%

Q: What about the “mRNA levels for the bone matrix proteins (in words)” value ([4]; 72 h) of the same molecule?
A: returned to normal levels

Q: And the “increase of TGF-β1 mRNA level” value [5]?
A: 177%

Q: What about the “increase of TGF-β2 mRNA level” value [5] of the same molecule?
A: 289%

Q: And the “increase of TGF-β3 mRNA level” value [5]?
A: 178%

Q: And the “IFN-β mRNA” value ([5]; 12-72 hours)?
A: Increased

Q: And the “IFN-γ mRNA” value ([5]; 12-72 hours)?
A: Not detected

Q: What about the “IL-1 Ra mRNA” value ([5]; 12-72 hours) of the same molecule?
A: Not detected

Q: And the “IL-1α mRNA” value ([5]; 12-72 hours)?
A: Not detected

Q: What about the “IL-1β mRNA” value ([5]; 12-72 hours) of the same molecule?
A: Not detected

Q: And the “IL-6 mRNA” value ([5]; 12-72 hours)?
A: Not detected

Q: And the “IL-10 mRNA” value ([5]; 12-72 hours)?
A: Not detected

Q: What about the “IL-12 p35 mRNA” value ([5]; 12-72 hours) of the same molecule?
A: Not detected

Q: And the “IL-12 p40 mRNA” value ([5]; 12-72 hours)?
A: Not detected

Q: And the “LT-β mRNA” value ([5]; 12-72 hours)?
A: Not detected

Q: And the “TGF-β1 mRNA” value ([5]; 12-72 hours)?
A: Increased

Q: What about the “TGF-β2 mRNA” value ([5]; 12-72 hours) of the same molecule?
A: Increased

Q: What about the “TGF-β3 mRNA” value ([5]; 12-72 hours) of the same molecule?
A: Increased

Q: And the “TNF-α mRNA” value ([5]; 12-72 hours)?
A: Not detected

Q: What about the “TNF-β mRNA” value ([5]; 12-72 hours) of the same molecule?
A: Not detected

Q: What about the “maximum increase of interferon-β mRNA level” value ([5]; by 48 h) of the same molecule?
A: 2100%

Q: And the “increase of interferon-β mRNA level” value ([5]; within 12 h)?
A: 500%
